The results in this text go back to US9611262B2, “Substituted 2-azabicycles and their use as orexin receptor modulators” (JANSSEN PHARMACEUTICA NV, priority 2014, dated 2017).

For test [1], the target named is rat orexin 1 receptor (Rattus norvegicus, UniProt P56718). Kind of test: Rat orexin 1 receptor radioligand binding (competitive). The settings on record: HEK293 cells stably expressing rat orexin 1 receptor; 4 nM radioligand; averages of 2-20 runs; read-out: rOX1 Ki. The essentials:
(§1)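 Competition binding used HEK293 cells expressing rat OX1 or CHO cells expressing human OX1, with 4 nM final [3H]-labelled thiazolyl-oxadiazolyl-pyrrolidinyl methanone radioligand in PBS. Compounds were tested at 7 concentrations (0.1 nM–10 μM) for 60 min at room temperature, then filtered; 10 μM almorexant defined nonspecific binding. Ki was derived from the one-site IC50 and the radioligand Kd.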

The target of test [2] is human orexin 1 receptor (Homo sapiens (Human), UniProt O43613). Kind of test: Human orexin 1 receptor radioligand binding (competitive). The settings on record: CHO cells stably expressing human orexin 1 receptor; 4 nM radioligand; averages of 2-20 runs; read-out: hOX1 Ki. The essentials:
as §1

Test [3] concerns the target human orexin 2 receptor (Homo sapiens (Human), UniProt O43614). Kind of test: Human orexin 2 receptor radioligand binding ([3H]-EMPA competition). The settings on record: HEK293 stably expressing human orexin 2 receptor; 2 nM [3H]-EMPA; averages of 2-20 runs; read-out: hOX2 Ki. The essentials: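 Membranes-free whole HEK293 cells stably expressing human OX2 receptor incubated with [3H]-EMPA and compound (7 concentrations, 0.1 nM–10 μM, ≤0.1% DMSO) for 60 min at room temperature; nonspecific binding with 10 μM almorexant. Filtration and scintillation counting; one-site IC50 converted to Ki using predetermined Kd, triplicates averaged over 2-20 runs.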

What is called Ki is the dissociation constant of the complex between target and ligand, obtained from inhibition or displacement.

human orexin 2 receptor, sequence (O43614 whole entry): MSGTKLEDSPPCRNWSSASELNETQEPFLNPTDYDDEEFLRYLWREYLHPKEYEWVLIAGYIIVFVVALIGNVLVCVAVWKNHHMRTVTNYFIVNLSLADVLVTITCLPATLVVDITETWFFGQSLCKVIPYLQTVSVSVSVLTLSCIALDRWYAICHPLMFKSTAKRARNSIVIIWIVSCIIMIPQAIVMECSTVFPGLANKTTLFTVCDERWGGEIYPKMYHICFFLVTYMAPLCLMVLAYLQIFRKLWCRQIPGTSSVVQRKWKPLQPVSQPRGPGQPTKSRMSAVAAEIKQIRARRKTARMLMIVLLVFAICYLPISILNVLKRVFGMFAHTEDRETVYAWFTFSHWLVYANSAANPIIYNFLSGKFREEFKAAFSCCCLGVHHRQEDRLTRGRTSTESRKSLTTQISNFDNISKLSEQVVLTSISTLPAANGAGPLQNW
human orexin 1 receptor, sequence (O43613 whole entry): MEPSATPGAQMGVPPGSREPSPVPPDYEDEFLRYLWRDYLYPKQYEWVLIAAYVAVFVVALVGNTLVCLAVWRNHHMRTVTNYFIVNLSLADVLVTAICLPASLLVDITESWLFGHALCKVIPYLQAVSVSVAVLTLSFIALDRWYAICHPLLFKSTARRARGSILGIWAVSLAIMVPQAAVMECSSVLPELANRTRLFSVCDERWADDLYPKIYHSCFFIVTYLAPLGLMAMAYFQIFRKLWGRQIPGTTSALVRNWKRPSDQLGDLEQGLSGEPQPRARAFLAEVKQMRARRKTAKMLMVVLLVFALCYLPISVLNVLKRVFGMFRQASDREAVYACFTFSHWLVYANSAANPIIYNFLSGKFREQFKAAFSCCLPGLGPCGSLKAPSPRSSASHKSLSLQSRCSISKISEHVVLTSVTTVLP

On to `[2H]C1([2H])[C@H]2C[C@@H]([C@@H]1Oc1ccc(Cl)cn1)N(C(=O)c1cccc(F)c1-n1nccn1)[C@@H]2C` [Example 197, [(1R,3R,4S,6R)-3-[(5-chloro-2-pyridyl)oxy]-2,2-dideuterio-6-methyl-5-azabicyclo[2.2.1]heptan-5-yl]-[3-fluoro-2-(triazol-2-yl)phenyl]methanone], for which the Ki in test [1] was found to be 4 nM; in test [2] it was 3 nM; in test [3] it was 481 nM.

Turning to `[2H]C1([2H])[C@H]2C[C@@H]([C@@H]1Oc1ccc(C(F)(F)F)cn1)N(C(=O)c1cccc(F)c1-n1nccn1)[C@@H]2C` [Example 199, [(1R,3R,4S,6R)-2,2-dideuterio-6-methyl-3-[[5-(trifluoromethyl)-2-pyridyl]oxy]-5-azabicyclo[2.2.1]heptan-5-yl]-[3-fluoro-2-(triazol-2-yl)phenyl]methanone], the Ki in test [1] is 5 nM; in test [2] it was 5 nM; in test [3], 556 nM.
